Data published in patent publication US20090010873A1, “Methods of Cell Therapy, Neurogenesis and Oligodendrogenesis” (YEDA RESEARCH AND DEVELOPMENT CO. LTD., priority 2004, published 2009).

How the values were obtained:
microglia = experiment: TNF-α and IGF-I expression in treated microglia (RT-PCR, Q-PCR, immunocytochemistry); assay type: cell-based, mouse
Description: (v) RNA purification, cDNA synthesis, and reverse-transcription PCR analysis. Cells were lysed with TRI reagent (MRC, Cincinnati, Ohio), and total cellular RNA was purified from lysates using the RNeasy kit (Qiagen, Hilden, Germany) according to the manufacturer's instructions. Residual genomic DNA was removed during the purification process by incubation with RNase-free DNase (Qiagen). RNA was stored in RNase-free water (Qiagen) at −80° C. RNA (1 μg) was converted to cDNA using SuperScript II ([…], Madison, Wis.), as recommended by the manufacturer. The cDNA mixture was diluted 1:5 with PCR-grade water.
We assayed the expression of specific mRNAs using semi-quantitative reverse transcription PCR(RT-PCR) with selected gene-specific primer pairs, using OLIGO v6.4 (Molecular Biology Insights, Cascade, Colo.).
The RT-PCR reactions were carried out using 1 μg of cDNA, […] of each primer, and ReadyMix PCR Master Mix (ABgene, Epsom, UK) in 30-μl reactions. PCR reactions were carried out in an Eppendorf PCR system with cycles (usually 25-30) of 95° C. for 30 s, 60° C. for 1 min, 72° C. for 1 min, and 72° C. for 5 min, and then kept at 4° C. As an internal standard for the amount of cDNA synthesized, we used β-actin mRNA. PCR products were subjected to agarose gel analysis and visualized by ethidium bromide staining. Signals were quantified using a Gel-Pro analyzer 3.1 (Media Cybernetics).
(xxiv) Real-time quantitative PCR analysis. Total cellular RNA purification and cDNA synthesis was performed as described in section (v) of Example 1 above. We assayed the expression of specific mRNAs using real-time quantitative PCR (Q-PCR) with selected gene-specific primer pairs. Q-PCR reactions were performed with a high-speed thermal cycler (LightCycler; Roche Diagnostics), and the product was detected by FastStart Master SYBR Green I (Roche Molecular Biochemicals) according to the manufacturer's instructions. The amplification cycle was 95° C. for 10 s, 60° C. for 5 s, and 72° C. for 10 s. The primers used were: […]

aNPCs = experiment: Neuronal differentiation of aNPCs with CD4+ T cells, T cell-conditioned medium or cytokines; assay type: cell-based, mouse; settings: aNPCs cultured 5 days with the cytokine
Description: (xxxiii) Co-culturing of neural progenitor cells and T cells. CD4+ T cells were purified from lymph nodes of 8-week-old C57B16/J mice as previously described (Kipnis et al., 2004). T cells were activated in RPMI medium supplemented with L-glutamine (2 mM), 2-mercaptoethanol (5×10^−5 M), sodium pyruvate (1 mM), penicillin (100 IU/ml), streptomycin (100 μg/ml), nonessential amino acids (1 ml/100 ml), and autologous serum 2% (v/v) in the presence of mouse recombinant IL-2 (mrIL-2; 5 ng/ml) and soluble anti-CD28 and anti-CD3 antibodies (1 ng/ml). T cells were co-cultured (5×10^4 cells/well) with aNPCs (5×10^4 cells/well) for 5 d on cover slips coated with Matrigel (BD Biosciences) in 24-well plates. The cultures were then fixed with 2.5% paraformaldehyde in PBS for 30 min at room temperature and stained for neuronal markers.
We therefore sought to determine whether direct interaction between aNPCs and T cells would also result in an altered pattern of aNPC differentiation. To address this question, we activated CD4+ T cells in vitro by a cognate protocol (with anti-CD3 antibodies, anti-CD28 antibodies, and IL-2) for 24 h and then allowed their activation to continue in co-cultures with aNPCs in a transwell culture system. […] After 5 days in culture the aNPCs in the lower chamber were fixed and analyzed for the appearance of newly formed neurons. […]

IFN-γ
expression of IGF-I in microglia (Q-PCR) (microglia; 10 ng/ml, 24 h): no effect
expression of IGF-I in microglia (Q-PCR) (microglia; 100 ng/ml, 24 h): completely arrested
IGF-I production/expression by microglia (microglia; RT-PCR time course and immunocytochemistry, IL-4 10 ng/ml, IFN-γ 20 ng/ml, LPS 100 ng/ml): down-regulation of IGF-I
TNF-α production by microglia (microglia; RT-PCR time course, IFN-γ 20 ng/ml): transient increase
TNF-α production in microglia (Q-PCR) (microglia; high-dose IFN-γ (100 ng/ml), 24 h): induced
concentration (as low as) inducing an increase in β-III tubulin expression (aNPCs): 1 ng/mL
